Values of other authors as cited in US20120064155A1, “ORAL PHARMACEUTICAL COMPOSITION FOR USE IN RESPIRATORY DISEASES” (LABORATORIOS SENOSIAIN S.A. DE C.V., priority 2009, published 2012).
≈ marks a conversion by molar mass, not a printed value.

Tests used:
[1] = after oral administration; approximately
[2] = system: plasma proteins

Compound | start of antihistamine effect [1] | bound to plasma proteins [2] | water solubility
CCOC(=O)N1CCC(=C2c3ccc(Cl)cc3CCc3cccnc32)CC1 [Loratadine] | ≤ 30 min | – | –
CNC[C@H](O)c1cccc(O)c1 [Phenylephrine] | – | 95% | 100 mg/mL (≈ 598 mM)
